# According to paper PMC4092069, “Structural and Functional Characterization of DUF1471 Domains of Salmonella Proteins SrfN, YdgH/SssB, and YahO” (PLoS ONE, 2014):
# Counter-ions that a name gives are not always drawn.
# Tests used:
# SrfN [1] = biological target: T1, SrfN (Salmonella enterica, UniProt Q7CR88); assay: 2-D 1H-15N HSQC NMR titration, chemical shift perturbation; type: binding; conditions: 0.5 mM SrfN monomer, oxyanion site, weak
# T1 construct: gene STM0082; full-length synthetic gene in pGS-21a, C-terminal 6xHis tag kept, signal peptide (1-21) cleaved in E. coli, mature residues 22-96; 15N or 13C,15N labelled
# SrfN [2] = biological target: T1, SrfN; assay: as above; type: binding
# SEC-MALS = biological target: the molecule itself; assay: SEC-MALS
molecule,measurement,setting,value
"O=C(O)C1=C[C@H](O)[C@@H](OS(=O)(=O)O)[C@H](O[C@H]2[C@H](O)[C@@H](NS(=O)(=O)O)C(O)O[C@@H]2COS(=O)(=O)O)O1 (stereo partly drawn) [heparin disaccharide, α-ΔUA-2S-[1→4]-GlcNS-6S]","2-D 1H-15N HSQC NMR titration, chemical shift perturbation",SrfN [1]; 5 mM disaccharide (20:1 to dimer),The interaction with heparin disaccharide appears to be somewhat weaker
O=S(=O)(O)O [sodium sulfate],"2-D 1H-15N HSQC NMR titration, chemical shift perturbation","SrfN [1]; neutral pH, 100-200 mM Na2SO4 (400-800:1 to dimer)",a region on the surface which interacts only weakly with sulfate ion at neutral pH
O=S(=O)(O)OC[C@H]1O[C@@](COS(=O)(=O)O)(O[C@H]2O[C@H](COS(=O)(=O)O)[C@@H](OS(=O)(=O)O)[C@H](OS(=O)(=O)O)[C@H]2OS(=O)(=O)O)[C@@H](OS(=O)(=O)O)[C@@H]1OS(=O)(=O)O [sucrose octasulfate],Kd,SrfN [2],< 500 µM
"SrfN (STM0082) of Salmonella enterica serovar Typhimurium LT2, processed form lacking the 21 N-termi (natural protein, uniform 15N or 13C,15N isotope labelling in the NMR samples, also called StR109; SrfN dimer) AEQVSKQEISHFKLVKVGTINVSQSGGQISSPSDLREKLSELADAKGGKYYHIIAAREHGPNFEAVAEVYNDATK",stoichiometry N,SEC-MALS,2
